From ChEMBL document CHEMBL1201862, “PubChem BioAssay data set” (2004)
Activity calls are given as the source filed them.

Key:
cells [1] = type: functional, cell-based
cells [2] = type: functional, cell-based; remark: listed apart in the source
[3] = blockers of bursicon-stimulated LGR2 cAMP reporter – cell-based, HEK293, CRE-luciferase reporter, cherry pick, set 2, dose response (AID 743343); type: functional;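 note: transfected cells were stimulated with diluted bursicon conditioned medium after compound addition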
HEK293 = experiment: EBV LMP1 TES2 canonical NF-kB signalling blockers – cell-based, HEK293, luciferase, cherry-pick, dose response (AID 588343); type: functional; conditions: Homo sapiens
[4] = blockade of melanocortin 4 receptor signaling – cell-based, plate reader, cherry pick, counter-screen for LGR2 antagonist project, dose response (AID 743444); type: functional;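 note: transfected HEK 293 cells stimulated with alpha-MSH peptide; potency of inhibitors of the alpha-MSH evoked signal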
[5] = P. falciparum Dd2 growth inhibitors, dose response, SYBR Green, cherry-picked samples (AID 1159567); type: functional, cell-based
[6] = HepG2 cell cytotoxicity, dose response, cytotoxicity control for non-replicating M. tuberculosis project (AID 489018); type: functional; conditions: Mycobacterium tuberculosis
[7] = molecular target: Voltage-dependent T-type calcium channel subunit alpha-1H (Homo sapiens, UniProt O95180); type: functional;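 note: channel activity triggered by adding a high calcium stimulation buffer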
Cytochrome P450 3A4 [8] = molecular target: T1, Cytochrome P450 3A4 (Homo sapiens, UniProt P08684); conditions: Potency
[9] = Vero E6 cell cytotoxicity, dose response, cytotoxicity control for non-replicating M. tuberculosis project, secondary assay (AID 492998); type: functional, VeroE6; conditions: Vero C1008
cells [10] = type: functional
[11] = THP-1 cell cytotoxicity, dose response, cytotoxicity control for non-replicating M. tuberculosis project (AID 489025); type: functional
[12] = viability of PTEN-deleted HCT116 cells – cell-based, HCT116 PTEN knockout, dose response (AID 1047); type: functional;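 note: HCT116 colon tumor cells with PTEN knocked out; cells exposed to compound for 60 hours before readout; potency for loss of cell viability measured by luminescence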
[13] = molecular target: T2, Ubiquitin-conjugating enzyme E2 N (Homo sapiens, UniProt P61088); type: functional;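 note: Dose-response confirmation in a TR-FRET assay detecting UBC13-driven polyubiquitin chain formation, inhibition measured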
T2 sequence (P61088 whole entry): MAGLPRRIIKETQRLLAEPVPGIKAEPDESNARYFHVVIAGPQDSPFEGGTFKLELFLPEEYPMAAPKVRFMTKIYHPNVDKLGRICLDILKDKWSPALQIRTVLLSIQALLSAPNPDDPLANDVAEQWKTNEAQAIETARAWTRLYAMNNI

[14] = Luminescence Cell-Based Dose Retest to Confirm Inhibitors of Cancer Stem Cells. [Related pubchem assays (depositor defined):AID2717, AID2721]; type: functional; conditions: Homo sapiens
[15] = reduction of Shn3 3'UTR-driven luciferase in osteoblasts – cell-based, Clone20 osteoblasts, firefly luciferase, cherry-picked, dose response (AID 624132); type: functional;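 note: firefly luciferase luminescence from reporter carrying the Shn3 3'UTR in osteoblasts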
[16] = non-specific 3'UTR reporter inhibition in Clone20-Shn3RL – cell-based, Renilla luciferase, cherry-picked, counter-screen for Shn3 inhibitor project, dose response (AID 624133); type: functional
[17] = loss of viability in HepG2 cells – cell-based, CellTiter-Glo, cherry-picked, cytotoxicity control for Shn3 inhibitor project, dose response (AID 624134); type: functional
[18] = viability of HCT116 lacking mutant beta-catenin – cell-based, human colon tumor, dose response (AID 1045); type: functional;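 note: HCT116 colon tumor cells with beta catenin knocked out; cells exposed to compound for 60 hours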
[19] = OVCAR-3 cell viability loss – plate reader, dry powder samples, PAX8 inhibitor project, dose response (AID 743044); type: functional, cell-based
Paired box protein Pax-8 = Paired box protein Pax-8 (Homo sapiens, UniProt Q06710); experiment: PAX8 transcriptional activity inhibition in RMG-I – RMG-I cells, luciferase, cherry-pick, dose response (AID 687027); type: functional, cell-based;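 note: luciferase reporter driven by Pax8 target thyroperoxidase promoter measured by SteadyGlo luminescence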
Streptokinase A = molecular target: T3, Streptokinase A (Streptococcus pyogenes serotype M1, UniProt P10520); experiment: viability-normalized secreted streptokinase activity reduction – plasminogen activation absorbance, OD405, dose response (AID 1914); type: functional, Streptococcus pyogenes M1 GAS;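 note: secreted streptokinase activity via plasminogen activation per viability signal from cell pellet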
T3 sequence (P10520 whole entry): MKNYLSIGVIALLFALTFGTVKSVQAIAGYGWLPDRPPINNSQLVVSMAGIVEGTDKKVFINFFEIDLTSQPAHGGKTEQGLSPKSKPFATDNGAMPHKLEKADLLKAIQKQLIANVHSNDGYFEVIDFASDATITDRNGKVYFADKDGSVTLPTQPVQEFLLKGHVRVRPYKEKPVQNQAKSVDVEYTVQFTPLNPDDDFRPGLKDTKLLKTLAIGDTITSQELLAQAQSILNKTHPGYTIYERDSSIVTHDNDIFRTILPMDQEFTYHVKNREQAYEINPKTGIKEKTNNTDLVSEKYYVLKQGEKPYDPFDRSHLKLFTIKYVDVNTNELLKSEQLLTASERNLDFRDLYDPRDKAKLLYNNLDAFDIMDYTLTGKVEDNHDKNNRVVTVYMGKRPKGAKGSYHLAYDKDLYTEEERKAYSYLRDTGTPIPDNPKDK

Cytochrome P450 2D6 = Cytochrome P450 2D6 (Homo sapiens, UniProt P10635);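 note: CYP2D6 member of a cytochrome P450 panel assay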
[20] = microbe, parasite or virus in culture; type: functional; conditions: Mycobacterium tuberculosis
[21] = test system: Streptococcus sp. 'group A'; experiment: Streptococcus pyogenes SK(-)GAS viability under kanamycin – luminescence, BacTiterGlo, confirmation, counter-screen for streptokinase expression inhibitor project, dose response (AID 1900); type: functional, organism-based
Cytochrome P450 3A4 [22] = molecular target: T1, Cytochrome P450 3A4
Streptococcus = experiment: GAS UMAA2166 growth inhibition – luminescence, BacTiterGlo, counter-screen for streptokinase expression inhibitor project, dose response (AID 1915); type: functional, organism-based;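 note: potency for reduction of bacterial viability or growth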
[23] = OVCAR8 cell viability loss – plate reader, dry powder samples, PAX8 project, dose response (AID 743197); type: functional, cell-based; conditions: OVCAR-8
H9c2 = experiment: cells; type: functional, cell-based; conditions: Rattus norvegicus, H9c2, Myocardium
Cytochrome P450 1A2 = molecular target: T4, Cytochrome P450 1A2 (Homo sapiens, UniProt P05177);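 note: PubChem cytochrome P450 panel assay, CYP1A2 panel member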
T4 sequence (P05177 whole entry): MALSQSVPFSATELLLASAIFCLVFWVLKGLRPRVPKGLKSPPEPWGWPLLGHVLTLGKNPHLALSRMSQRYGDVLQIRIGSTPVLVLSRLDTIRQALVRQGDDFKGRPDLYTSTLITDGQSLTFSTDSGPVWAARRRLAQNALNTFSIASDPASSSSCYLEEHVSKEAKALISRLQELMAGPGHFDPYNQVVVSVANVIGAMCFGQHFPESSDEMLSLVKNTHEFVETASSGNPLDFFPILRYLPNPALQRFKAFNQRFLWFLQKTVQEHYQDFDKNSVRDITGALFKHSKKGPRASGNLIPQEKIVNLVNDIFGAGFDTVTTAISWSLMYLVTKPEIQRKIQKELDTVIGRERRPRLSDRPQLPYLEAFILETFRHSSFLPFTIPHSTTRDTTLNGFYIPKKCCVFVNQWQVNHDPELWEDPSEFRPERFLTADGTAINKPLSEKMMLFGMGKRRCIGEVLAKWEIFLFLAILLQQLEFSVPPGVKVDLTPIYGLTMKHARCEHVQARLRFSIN

[24] = A549 cell cytotoxicity, dose response, cytotoxicity control, plate reader, cherry-pick, antagonist series (AID 743412); type: functional, cell-based
[25] = toxicity toward HepG2 liver cells – cell-based, plate reader, cherry-pick, antagonist series, cytotoxicity control, dose response (AID 743416); type: functional

T1 sequence (P08684 whole entry): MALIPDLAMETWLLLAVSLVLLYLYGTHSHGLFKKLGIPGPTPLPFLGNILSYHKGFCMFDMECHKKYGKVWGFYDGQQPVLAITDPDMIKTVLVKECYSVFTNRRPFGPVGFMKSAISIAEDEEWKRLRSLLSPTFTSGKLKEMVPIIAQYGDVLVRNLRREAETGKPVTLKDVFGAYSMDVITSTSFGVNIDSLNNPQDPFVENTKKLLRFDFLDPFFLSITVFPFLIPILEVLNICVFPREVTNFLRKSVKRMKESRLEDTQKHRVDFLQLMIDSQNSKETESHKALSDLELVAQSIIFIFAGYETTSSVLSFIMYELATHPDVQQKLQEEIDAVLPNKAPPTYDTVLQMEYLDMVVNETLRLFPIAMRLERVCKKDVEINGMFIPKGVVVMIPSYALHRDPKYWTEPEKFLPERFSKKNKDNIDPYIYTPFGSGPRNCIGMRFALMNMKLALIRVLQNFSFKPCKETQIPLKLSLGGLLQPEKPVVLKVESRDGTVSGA
Voltage-dependent T-type calcium channel subunit alpha-1H, sequence (O95180 whole entry): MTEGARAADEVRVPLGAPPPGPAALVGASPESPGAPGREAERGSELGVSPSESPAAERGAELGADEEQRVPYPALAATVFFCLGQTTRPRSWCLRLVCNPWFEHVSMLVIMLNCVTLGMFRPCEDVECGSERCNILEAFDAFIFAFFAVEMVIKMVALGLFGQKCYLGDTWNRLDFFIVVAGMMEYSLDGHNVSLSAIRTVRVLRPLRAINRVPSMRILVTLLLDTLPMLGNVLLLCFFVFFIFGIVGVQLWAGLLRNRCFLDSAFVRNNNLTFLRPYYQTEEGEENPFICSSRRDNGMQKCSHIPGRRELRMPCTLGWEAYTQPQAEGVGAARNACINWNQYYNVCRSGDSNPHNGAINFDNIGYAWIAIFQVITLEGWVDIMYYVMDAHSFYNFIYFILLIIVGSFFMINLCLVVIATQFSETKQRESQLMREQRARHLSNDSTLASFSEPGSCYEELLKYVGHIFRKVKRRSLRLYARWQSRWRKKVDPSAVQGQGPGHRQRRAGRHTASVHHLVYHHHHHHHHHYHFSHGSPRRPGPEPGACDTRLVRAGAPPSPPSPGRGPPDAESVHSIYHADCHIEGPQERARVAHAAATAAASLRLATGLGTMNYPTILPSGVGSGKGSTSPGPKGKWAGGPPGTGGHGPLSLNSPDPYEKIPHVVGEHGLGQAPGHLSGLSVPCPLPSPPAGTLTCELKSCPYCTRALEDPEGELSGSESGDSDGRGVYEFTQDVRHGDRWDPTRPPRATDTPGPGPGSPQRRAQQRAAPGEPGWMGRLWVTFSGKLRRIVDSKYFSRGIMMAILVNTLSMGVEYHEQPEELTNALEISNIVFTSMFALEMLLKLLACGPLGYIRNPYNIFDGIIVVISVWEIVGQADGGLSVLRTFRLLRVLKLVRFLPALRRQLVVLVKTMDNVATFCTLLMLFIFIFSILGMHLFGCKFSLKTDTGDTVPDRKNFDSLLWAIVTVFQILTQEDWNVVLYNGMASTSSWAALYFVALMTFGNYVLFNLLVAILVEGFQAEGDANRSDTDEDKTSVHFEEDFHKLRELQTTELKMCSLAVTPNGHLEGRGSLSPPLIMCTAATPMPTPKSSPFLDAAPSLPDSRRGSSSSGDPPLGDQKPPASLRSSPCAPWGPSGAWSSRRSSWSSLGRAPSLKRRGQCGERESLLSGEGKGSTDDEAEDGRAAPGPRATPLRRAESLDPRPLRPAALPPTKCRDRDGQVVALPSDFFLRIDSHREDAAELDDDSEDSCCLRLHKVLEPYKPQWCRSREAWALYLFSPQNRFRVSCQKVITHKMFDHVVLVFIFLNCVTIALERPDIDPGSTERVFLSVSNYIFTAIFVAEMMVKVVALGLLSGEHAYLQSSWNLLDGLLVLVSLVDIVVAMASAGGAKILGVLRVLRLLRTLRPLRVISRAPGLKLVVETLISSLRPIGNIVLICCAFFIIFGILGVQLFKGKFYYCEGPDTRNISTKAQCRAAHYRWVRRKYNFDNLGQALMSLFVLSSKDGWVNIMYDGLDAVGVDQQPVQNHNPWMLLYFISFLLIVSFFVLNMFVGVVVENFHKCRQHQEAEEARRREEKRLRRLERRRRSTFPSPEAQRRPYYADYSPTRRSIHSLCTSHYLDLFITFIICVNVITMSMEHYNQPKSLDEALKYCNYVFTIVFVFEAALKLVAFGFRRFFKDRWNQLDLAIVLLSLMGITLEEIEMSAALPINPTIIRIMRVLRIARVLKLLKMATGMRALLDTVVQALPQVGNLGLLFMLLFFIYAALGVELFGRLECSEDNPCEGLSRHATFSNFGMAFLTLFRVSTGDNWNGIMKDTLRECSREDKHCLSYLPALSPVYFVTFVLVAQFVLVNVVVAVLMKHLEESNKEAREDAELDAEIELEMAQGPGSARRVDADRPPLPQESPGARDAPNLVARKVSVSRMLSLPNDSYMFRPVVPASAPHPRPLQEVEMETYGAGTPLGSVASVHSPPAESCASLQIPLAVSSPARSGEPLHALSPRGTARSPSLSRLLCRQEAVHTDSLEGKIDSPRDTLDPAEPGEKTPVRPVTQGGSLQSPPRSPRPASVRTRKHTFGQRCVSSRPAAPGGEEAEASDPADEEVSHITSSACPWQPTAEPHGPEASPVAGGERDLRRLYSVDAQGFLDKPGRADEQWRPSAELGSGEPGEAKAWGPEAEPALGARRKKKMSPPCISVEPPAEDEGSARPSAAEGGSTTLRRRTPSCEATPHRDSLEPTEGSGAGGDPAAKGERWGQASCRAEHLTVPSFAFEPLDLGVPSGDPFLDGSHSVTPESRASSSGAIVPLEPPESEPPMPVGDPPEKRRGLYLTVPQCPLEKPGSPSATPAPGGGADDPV
Paired box protein Pax-8, sequence (Q06710 whole entry): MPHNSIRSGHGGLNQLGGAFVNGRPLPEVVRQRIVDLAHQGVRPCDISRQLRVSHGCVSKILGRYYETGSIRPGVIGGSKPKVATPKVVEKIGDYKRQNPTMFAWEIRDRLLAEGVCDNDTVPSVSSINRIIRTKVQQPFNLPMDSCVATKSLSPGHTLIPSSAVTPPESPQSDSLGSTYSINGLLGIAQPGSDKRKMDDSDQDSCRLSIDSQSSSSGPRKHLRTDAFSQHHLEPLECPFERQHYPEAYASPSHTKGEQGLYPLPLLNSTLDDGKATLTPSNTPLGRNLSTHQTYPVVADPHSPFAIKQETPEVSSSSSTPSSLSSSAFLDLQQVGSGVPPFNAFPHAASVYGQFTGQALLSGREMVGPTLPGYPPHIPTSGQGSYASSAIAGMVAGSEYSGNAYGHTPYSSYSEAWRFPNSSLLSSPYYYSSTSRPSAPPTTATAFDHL
Cytochrome P450 2D6, sequence (P10635 whole entry): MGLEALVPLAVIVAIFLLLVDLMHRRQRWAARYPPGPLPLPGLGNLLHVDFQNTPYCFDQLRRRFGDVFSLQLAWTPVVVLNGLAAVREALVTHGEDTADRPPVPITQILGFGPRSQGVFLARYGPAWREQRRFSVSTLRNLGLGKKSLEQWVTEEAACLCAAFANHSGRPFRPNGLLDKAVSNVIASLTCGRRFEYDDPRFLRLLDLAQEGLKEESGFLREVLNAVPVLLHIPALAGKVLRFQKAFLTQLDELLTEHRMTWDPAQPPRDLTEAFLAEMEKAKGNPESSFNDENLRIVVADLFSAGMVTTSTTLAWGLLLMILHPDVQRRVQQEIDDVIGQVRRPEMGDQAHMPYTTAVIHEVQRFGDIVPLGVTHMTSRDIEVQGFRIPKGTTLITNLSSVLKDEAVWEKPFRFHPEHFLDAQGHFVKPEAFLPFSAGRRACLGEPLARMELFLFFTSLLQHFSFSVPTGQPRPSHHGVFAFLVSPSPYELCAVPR

## CCn1ncc(C2=NOC(C(=O)Nc3ccc4c(c3)OCO4)C2)c1C (configuration not stated)
Cells [1]
  EC50: > 350 µM (not active)
Cells [2]
  EC50: > 350 µM (not active)

## Clc1ccc(-n2ncc3c(N4CCCC4)ncnc32)cc1
[3]
  AC50: 2.04 µM (active)
HEK293
  AC50: 1.32 µM (active)
[4]
  AC50: 2.7 µM (active)

## CCc1nc(N2[C@H](C#N)[C@H](c3ccccc3-c3ccccc3F)[C@H]2CO)sc1C
[5]
  AC50: 7.33 µM (active)

## O=C(NC(=S)NCCc1ccccc1)c1ccccc1
[6]
  CC50: > 20 µM (active)

## Cc1nn(Cc2ccccc2)c(Cl)c1C(=O)OCc1nnc(-c2ccccc2)o1
[7]
  EC50: 30.4 µM (active)

## Nc1cc(=O)[nH]c(=O)n1Cc1ccccc1
Cytochrome P450 3A4 [8]
  AC50: 25.1 µM (inconclusive)

## CCCCCn1c(=O)c(C(=O)Nc2nc(CC(=O)OCC)cs2)c(O)c2ccccc21
[9]
  CC50: 11.8 µM (active)
Cells [10]
  IC50: 2.79 µM (active)
[6]
  CC50: > 20 µM (active)
[11]
  CC50: 11.1 µM (active)

## CC(C)(C)c1ccc(C(=O)NCCCN2CCN(CCCNC(=O)c3ccc(C(C)(C)C)cc3)CC2)cc1
[12]
  EC50: 27.9 µM (active)
[13]
  IC50: > 20 µM (inactive)
[14]
  AC50: 6.71 µM (active)
[15]
  AC50: 4.84 µM (active)
[16]
  AC50: 1.62 µM (active)
[17]
  AC50: 15.2 µM (active)
[18]
  EC50: 5.18 µM (active)

## C/C=C/OC(=O)NC(c1cccc(C)c1)[C@@]1(C(=O)OCC)CCCC1=O (some centres not stated)
Cytochrome P450 3A4 [8]
  AC50: 1.26 µM (inconclusive)

## O=C1CN(c2ccccc2)C(=O)N1
Cells [1]
  EC50: > 350 µM (not active)
Cells [2]
  EC50: > 350 µM (not active)

## COc1ccc(S(=O)(=O)N(Cc2ccccc2)Cc2nc(-c3ccccc3)no2)cc1
[7]
  EC50: 6.27 µM (active)

## O=C(Cc1cccnc1)N1CC[C@H]2[C@H](CO)Nc3ccc(C#Cc4cccc(F)c4)cc3[C@H]21
[5]
  AC50: 6.12 µM (active)

## O=C(NCc1ccc(F)cc1)C1CCN(S(=O)(=O)N2CCOCC2)CC1
Cells [1]
  EC50: > 350 µM (not active)
Cells [2]
  EC50: > 350 µM (not active)

## C[C@@H]1CN([C@@H](C)CO)C(=O)c2cc(NS(=O)(=O)c3cccs3)ccc2O[C@@H](C)CCCCO[C@H]1CN(C)Cc1ccc(C(F)(F)F)cc1
[19]
  AC50: 44 µM (active)
Paired box protein Pax-8
  AC50: 25.2 µM (active)

## Cc1nn(-c2nc3ccccc3[nH]2)c(N)c1-c1ccc(Cl)cc1
[9]
  CC50: 17.2 µM (active)
Cells [10]
  IC50: 1.23 µM (active)
[6]
  CC50: 16.2 µM (active)
Streptokinase A
  EC50: > 150 µM (not active)
Cytochrome P450 2D6
  AC50: 12.6 µM (inconclusive)
[11]
  CC50: 25.8 µM (active)
[20]
  CC50: 31.1 µM (active)
[21]
  EC50: 2.42 µM (active)
Cytochrome P450 3A4 [22]
  AC50: 25.1 µM (inconclusive)
Streptococcus
  EC50: 8.49 µM (active)

## COc1ccccc1-c1ccc2c(c1)[C@H]1[C@H](CCN1C(=O)C1CCCC1)[C@@H](CO)N2
[5]
  AC50: 4.88 µM (active)

## O=C(CCc1ccccc1)N1CCN(c2ccc(Cl)cc2)CC1
[7]
  EC50: 4.01 µM (active)

## O=C(NCCSc1c[nH]c2ccccc12)c1ccc(Br)o1
Cells [1]
  EC50: > 350 µM (not active)
Cells [2]
  EC50: > 350 µM (not active)

## CC(C)(C)[S@@+]([O-])N1Cc2cc(C(=O)NCCN3CCCCC3)nc(-c3cccc(-c4cccc(C#N)c4)c3)c2[C@H]1CCO
[5]
  AC50: 7.56 µM (active)

## CCCn1c(-c2ccc(F)cc2)nc2c(NCCN3CCCCC3)nc(C)nc21
Cytochrome P450 3A4 [8]
  AC50: 15.8 µM (inconclusive)

## O=c1c(O)c(-c2ccccc2)oc2cccc(O)c12
Cytochrome P450 3A4 [8]
  AC50: 12.6 µM (inconclusive)

## COc1ccc(-c2c(O)c3c(OC)c4c(cc3oc2=O)OC(C)(C)CC4)cc1 [DIHYDROROBUSTIC ACID]
Cytochrome P450 3A4 [8]
  AC50: 25.1 µM (inconclusive)

## COc1ccc(S(=O)(=O)Nc2ccc3c(c2)C(=O)N([C@H](C)CO)C[C@@H](C)[C@H](CN(C)S(=O)(=O)c2ccc(F)cc2)OCCCC[C@H](C)O3)cc1
[23]
  AC50: > 70 µM (inactive)
Paired box protein Pax-8
  AC50: 4.65 µM (active)

## Nc1ccn([C@@H]2O[C@H](CO)[C@@H](OP(=O)(O)O)[C@H]2O)c(=O)n1
Cytochrome P450 3A4 [8]
  AC50: 7.94 µM (inconclusive)

## COc1ccc(CCNC(=O)c2cc(-c3cccs3)on2)cc1OC
Cells [1]
  EC50: > 350 µM (not active)
Cells [2]
  EC50: > 350 µM (not active)

## COCCCn1c(N)c(C(=O)Nc2sc3c(c2C(=O)OC)CCCC3)c2nc3ccccc3nc21
[12]
  EC50: 27.8 µM (active)
H9c2
  IC50: > 79 µM (inactive)
Cytochrome P450 1A2
  AC50: 10 µM (inconclusive)
[18]
  EC50: 33.9 µM (active)

## O=C(NC(=S)Nc1ccccn1)c1cccc([N+](=O)[O-])c1
Cells [1]
  EC50: > 350 µM (not active)
Cells [2]
  EC50: > 350 µM (not active)

## Cn1c(=O)c(C(=O)Nc2ccccn2)c(O)c2ccccc21
[9]
  CC50: 11.3 µM (active)
Cells [10]
  IC50: 11.1 µM (active)
[6]
  CC50: > 20 µM (active)
[11]
  CC50: 19 µM (active)

## Cc1ccc(-n2nnc(-c3nccn3C)n2)cc1
[24]
  AC50: > 52 µM (inactive)
[3]
  AC50: 5.3 µM (active)
[25]
  AC50: > 52 µM (inactive)
[4]
  AC50: 6.81 µM (active)

## O=[N+]([O-])c1ccc2[nH]cnc2c1
Cytochrome P450 3A4 [8]
  AC50: 25.1 µM (inconclusive)
